Assay results as given in patent US9555029B2 (HIKMA PHARMACEUTICALS, priority 2013, dated 2017).
Where two headings read alike, the source gives them in different places.

Columns and labels:
[1] = Colchicine pharmacokinetics coadministered with fluconazole
Description: The inhibitor dosage form was an oral 200 mg tablet of Diflucan® (fluconazole, from Pfizer).
The fluconazole trial differed from the Example 2 protocol as follows.

[2] = cited from earlier work
[3] = Colchicine pharmacokinetics coadministered with voriconazole
[4] = for AUCT/∞ / Kel / T1/2el: mean
Description: Subjects were included only if they were not older than 45 years (as opposed to no upper limit). Also, in inclusion criteria the lower threshold for the body mass index was 21.00 (as opposed to 18.00) kg/m^2.

[5] = cited from earlier work; remark: listed apart in the source
[6] = Treatment-1 (day 1): colchicine 0.6 mg alone, fasted, fluconazole study, mean
[7] = Treatment-2 (day 9): colchicine 0.6 mg + fluconazole 200 mg after double dose day 4, once daily days 5-8, fasted, mean
[8] = co-administration of fluconazole vs colchicine alone
[9] = Treatment-1 (day 1): colchicine 0.6 mg alone, fasted, voriconazole study, mean
[10] = Treatment-2 (day 9): colchicine 0.6 mg + voriconazole 200 mg after twice daily days 4-8, fasted, mean
[11] = of 12 subjects, cimetidine study
[12] = of 12 subjects, colchicine + cimetidine
[13] = Treatment-1 (day 1): colchicine 0.6 mg alone, fasted, propafenone study
[14] = Treatment-2 (day 9): colchicine 0.6 mg + propafenone 225 mg after twice daily days 4-8, fasted
[15] = coadministration with propafenone vs colchicine alone
[16] = colchicine coadministered with azithromycin

## COc1cc2c(c(OC)c1OC)-c1ccc(OC)c(=O)cc1[C@@H](NC(C)=O)CC2 [Colchicine, (S)N-(5,6,7,9-tetrahydro-1,2,3,10-tetramethoxy-9-oxobenzo[alpha]heptalen-7-yl)acetamide]
[1]; [6]
  AUCT/∞: 85.33%
  Kel: 0.0206 h⁻¹
  T1/2el: 34.05 h
[1]; [7]
  AUCT/∞: 83.54%
  Kel: 0.0204 h⁻¹
  T1/2el: 34.51 h
[1]; [8]
  Increase of mean Cmax for colchicine: 13%
  Increase of overall exposure of colchicine (AUC): 40%
[1]; male, human, in vivo, 0.6 mg
  CL/F: 610 mL/min
  Tmax: 1.25 h
  Vd/F: 1810 L
[1]; male, human, in vivo, 0.6 mg, AUCT GEOMETRIC LSMEANS, Treatment-1: colchicine 0.6 mg alone, fluconazole study
  AUC(0-t): 14.5 ng·h/mL
[1]; male, human, in vivo, 0.6 mg, AUCT, Treatment-1 (day 1): colchicine 0.6 mg alone, fasted, fluconazole study, mean
  AUC(0-t): 14.9 ng·h/mL
[1]; male, human, in vivo, 0.6 mg, AUC∞ GEOMETRIC LSMEANS, Treatment-1: colchicine 0.6 mg alone, fluconazole study
  AUC(0-inf): 17 ng·h/mL
[1]; male, human, in vivo, 0.6 mg, AUC∞, Treatment-1 (day 1): colchicine 0.6 mg alone, fasted, fluconazole study, mean
  AUC(0-inf): 17.5 ng·h/mL
[1]; male, human, in vivo, 0.6 mg, Cmax GEOMETRIC LSMEANS, Treatment-1: colchicine 0.6 mg alone, fluconazole study
  Cmax: 1.81 ng/mL
[1]; male, human, in vivo, 0.6 mg, Cmax, Treatment-1 (day 1): colchicine 0.6 mg alone, fasted, fluconazole study, mean
  Cmax: 1.93 ng/mL
[1]; male, human, in vivo, AUCT GEOMETRIC LSMEANS, Treatment-2: colchicine 0.6 mg + fluconazole
  AUC(0-t): 20.4 ng·h/mL
[1]; male, human, in vivo, AUCT, Treatment-2 (day 9): colchicine 0.6 mg + fluconazole 200 mg after double dose day 4, once daily days 5-8, fasted, mean
  AUC(0-t): 21.3 ng·h/mL
[1]; male, human, in vivo, AUC∞ GEOMETRIC LSMEANS, Treatment-2: colchicine 0.6 mg + fluconazole
  AUC(0-inf): 24.4 ng·h/mL
[1]; male, human, in vivo, AUC∞, Treatment-2 (day 9): colchicine 0.6 mg + fluconazole 200 mg after double dose day 4, once daily days 5-8, fasted, mean
  AUC(0-inf): 25.6 ng·h/mL
[1]; male, human, in vivo, Cmax GEOMETRIC LSMEANS, Treatment-2: colchicine 0.6 mg + fluconazole
  Cmax: 2.05 ng/mL
[1]; male, human, in vivo, Cmax, Treatment-2 (day 9): colchicine 0.6 mg + fluconazole 200 mg after double dose day 4, once daily days 5-8, fasted, mean
  Cmax: 2.3 ng/mL
[2]; in vivo
  Colchicine passing unchanged in the urine: up to 20%
[2]; oral, patients with normal organ function
  Time to peak concentrations in the blood: ≤ 2 h
[3]; [9]
  AUCT/∞: 87.75%
  Kel: 0.0240 h⁻¹
  T1/2el: 29.63 h
[3]; [10]
  AUCT/∞: 86.14%
  Kel: 0.0227 h⁻¹
  T1/2el: 31.30 h
[3]; coadministration with voriconazole vs colchicine alone
  Decrease of colchicine Cmax: about 20%
[3]; male, human, in vivo, 0.6 mg
  CL/F: 550 mL/min
  Tmax: 1.38 h
  Vd/F: 1350 L
[3]; male, human, in vivo, 0.6 mg, AUCT GEOMETRIC LSMEANS, Treatment-1: colchicine 0.6 mg alone, voriconazole study
  AUC(0-t): 17.9 ng·h/mL
[3]; male, human, in vivo, 0.6 mg, AUCT, Treatment-1 (day 1): colchicine 0.6 mg alone, fasted, voriconazole study, mean
  AUC(0-t): 19.6 ng·h/mL
[3]; male, human, in vivo, 0.6 mg, AUC∞ GEOMETRIC LSMEANS, Treatment-1: colchicine 0.6 mg alone, voriconazole study
  AUC(0-inf): 20.5 ng·h/mL
[3]; male, human, in vivo, 0.6 mg, AUC∞, Treatment-1 (day 1): colchicine 0.6 mg alone, fasted, voriconazole study, mean
  AUC(0-inf): 22.4 ng·h/mL
[3]; male, human, in vivo, 0.6 mg, Cmax GEOMETRIC LSMEANS, Treatment-1: colchicine 0.6 mg alone, voriconazole study
  Cmax: 2.3 ng/mL
[3]; male, human, in vivo, 0.6 mg, Cmax, Treatment-1 (day 1): colchicine 0.6 mg alone, fasted, voriconazole study, mean
  Cmax: 2.66 ng/mL
[3]; male, human, in vivo, AUCT GEOMETRIC LSMEANS, Treatment-2: colchicine 0.6 mg + voriconazole
  AUC(0-t): 19.5 ng·h/mL
[3]; male, human, in vivo, AUCT, Treatment-2 (day 9): colchicine 0.6 mg + voriconazole 200 mg after twice daily days 4-8, fasted, mean
  AUC(0-t): 20.7 ng·h/mL
[3]; male, human, in vivo, AUC∞ GEOMETRIC LSMEANS, Treatment-2: colchicine 0.6 mg + voriconazole
  AUC(0-inf): 22.7 ng·h/mL
[3]; male, human, in vivo, AUC∞, Treatment-2 (day 9): colchicine 0.6 mg + voriconazole 200 mg after twice daily days 4-8, fasted, mean
  AUC(0-inf): 24.1 ng·h/mL
[3]; male, human, in vivo, Cmax GEOMETRIC LSMEANS, Treatment-2: colchicine 0.6 mg + voriconazole
  Cmax: 1.83 ng/mL
[3]; male, human, in vivo, Cmax, Treatment-2 (day 9): colchicine 0.6 mg + voriconazole 200 mg after twice daily days 4-8, fasted, mean
  Cmax: 2.06 ng/mL
Cimetidine study
  Number of adverse events requiring medication after Treatment-1: None
  Number of serious adverse events or deaths: None
  Total number of adverse events after Treatment-1: 11
Colchicine + cimetidine
  Total number of adverse events after Treatment-2: 2
[11]
  Number of subjects experiencing adverse events after Treatment-1: 7
  Percent of subjects experiencing adverse events after Treatment-1: 58.3%
[12]
  Number of subjects experiencing adverse events after Treatment-2: 1
  Percent of subjects experiencing adverse events after Treatment-2: 8.3%
[4]; [13]
  AUCT/∞: 88.21%
  Kel: 0.0241 h⁻¹
  T1/2el: 29.74 h
[4]; [14]
  AUCT/∞: 89.16%
  Kel: 0.0250 h⁻¹
  T1/2el: 28.25 h
[4]; Treatment-2 (day 9): colchicine 0.6 mg + propafenone 225 mg after twice daily days 4-8, fasted, median
  Tmax (median hours): 1.00 h
[4]; [15]
  Increase of colchicine AUC: 1%
  Increase of colchicine Cmax: 7%
[5]; [16]
  Number of 24 subjects with adverse events overall: 11
  Percent of 24 subjects with adverse events overall: (45.8) %
  Total number of adverse events: 27
[5]; colchicine coadministered with clarithromycin
  Number of 24 subjects with adverse events overall: 14
